Measured values as given in PMC5693948, “Phosphatidylserine decarboxylase CT699, lysophospholipid acyltransferase CT775, and acyl-ACP synthase CT776 provide membrane lipid diversity to Chlamydia trachomatis” (Scientific Reports, 2017).

Experiments:
[1] = biological target: T1, hACSL6-iso2 (human long-chain acyl-CoA synthetase 6) (Homo sapiens, UniProt Q9UKU0); assay: competition with […]C18:1-CoA formation; type: biochemical; settings: 1 µM [14C]C18:1-OH, ATP, CoASH, 0.15 µM enzyme, 30 °C; competing substrate
T1 construct: gene ACSL6; hexahistidine fusion, Ni-NTA partially purified, CHAPS lysis
T1 sequence (Q9UKU0 1-697): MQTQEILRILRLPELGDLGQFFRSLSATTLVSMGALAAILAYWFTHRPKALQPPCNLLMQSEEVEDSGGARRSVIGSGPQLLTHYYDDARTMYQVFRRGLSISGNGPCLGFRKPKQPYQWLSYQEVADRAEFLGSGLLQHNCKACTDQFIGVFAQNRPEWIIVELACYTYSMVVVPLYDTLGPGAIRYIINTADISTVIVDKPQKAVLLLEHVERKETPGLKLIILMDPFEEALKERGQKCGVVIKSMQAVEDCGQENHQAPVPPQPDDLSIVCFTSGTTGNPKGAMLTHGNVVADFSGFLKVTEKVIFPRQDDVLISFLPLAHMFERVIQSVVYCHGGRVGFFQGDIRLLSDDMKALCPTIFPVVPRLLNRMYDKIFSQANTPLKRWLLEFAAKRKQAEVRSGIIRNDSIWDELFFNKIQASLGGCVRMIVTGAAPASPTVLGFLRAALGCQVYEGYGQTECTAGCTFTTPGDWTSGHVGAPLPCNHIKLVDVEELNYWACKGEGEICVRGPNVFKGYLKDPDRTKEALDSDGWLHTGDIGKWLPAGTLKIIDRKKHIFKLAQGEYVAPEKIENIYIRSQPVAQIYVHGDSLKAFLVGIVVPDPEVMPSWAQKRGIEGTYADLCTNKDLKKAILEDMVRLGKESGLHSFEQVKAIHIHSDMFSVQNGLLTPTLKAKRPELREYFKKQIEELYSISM

[2] = biological target: T2, AasC (CT776), Chlamydia acyl-ACP synthase (Chlamydia trachomatis, UniProt O84781); assay: […]-phospholipid formation from […]-palmitate in E. coli lysate, TLC; type: biochemical; settings: 5 µM [14C]C16-OH, 10 mM ATP, 20 mM MgCl2, pH 7.4, 30 °C; E. coli acyl carrier and acyltransferase in lysate
T2 construct: gene aas; full-length, pET28a, expressed in E. coli BL21(DE3), crude lysate
T2 sequence (O84781 1-537): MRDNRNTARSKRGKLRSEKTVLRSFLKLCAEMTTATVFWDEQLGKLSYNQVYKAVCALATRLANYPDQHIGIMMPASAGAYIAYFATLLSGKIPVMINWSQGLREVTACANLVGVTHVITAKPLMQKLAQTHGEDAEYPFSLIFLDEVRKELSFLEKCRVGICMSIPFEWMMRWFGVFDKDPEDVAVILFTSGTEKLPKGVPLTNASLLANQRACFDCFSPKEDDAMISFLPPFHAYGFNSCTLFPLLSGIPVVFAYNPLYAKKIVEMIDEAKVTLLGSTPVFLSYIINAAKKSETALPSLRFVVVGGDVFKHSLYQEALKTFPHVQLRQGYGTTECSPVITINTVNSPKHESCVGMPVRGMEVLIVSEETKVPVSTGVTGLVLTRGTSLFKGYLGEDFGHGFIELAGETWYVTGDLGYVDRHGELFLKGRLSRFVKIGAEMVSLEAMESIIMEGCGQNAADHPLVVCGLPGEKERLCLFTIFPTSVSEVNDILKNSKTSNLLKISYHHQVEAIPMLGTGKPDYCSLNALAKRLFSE

[3] = biological target: T1, hACSL6-iso2 (human long-chain acyl-CoA synthetase 6); assay: acyl-CoA / acyl-AMP formation; type: biochemical; settings: with fatty acid and CoASH
[4] = biological target: T3, CT775 (LpaT), lysophospholipid acyltransferase (Chlamydia trachomatis, UniProt O84780); assay: NBD-PC formation, TLC, bee venom PLA2 digestion, microsomes; type: biochemical; settings: 1 µM NBD-C16-CoA, 10 µM 1-C16-GPC, pH 7.4, 30 °C; acyl acceptor
T3 construct: gene CT_775; expressed in E. coli BL21(DE3), membrane fraction (microsomes); cloning reported previously
T3 sequence (O84780 1-253): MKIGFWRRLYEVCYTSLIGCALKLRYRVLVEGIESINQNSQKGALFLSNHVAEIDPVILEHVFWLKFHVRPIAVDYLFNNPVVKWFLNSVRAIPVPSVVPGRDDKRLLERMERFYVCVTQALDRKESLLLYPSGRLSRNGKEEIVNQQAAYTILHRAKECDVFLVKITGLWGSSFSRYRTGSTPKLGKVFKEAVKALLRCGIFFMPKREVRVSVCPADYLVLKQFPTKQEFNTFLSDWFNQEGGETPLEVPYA

[5] = biological target: T4, CT699 (PsdD), PS-decarboxylase (Chlamydia trachomatis, UniProt P0CD79); assay: conversion of NBD-PS to NBD-PE, TLC fluorescence, E. coli lysate vs vector control; type: cell-based; settings: 2 µM NBD-PS, Tris pH 7.4, 37 °C; labelled compound
T4 construct: gene psd; full-length, pET28a, expressed in E. coli BL21(DE3), lysate
T4 sequence (P0CD79 1-259): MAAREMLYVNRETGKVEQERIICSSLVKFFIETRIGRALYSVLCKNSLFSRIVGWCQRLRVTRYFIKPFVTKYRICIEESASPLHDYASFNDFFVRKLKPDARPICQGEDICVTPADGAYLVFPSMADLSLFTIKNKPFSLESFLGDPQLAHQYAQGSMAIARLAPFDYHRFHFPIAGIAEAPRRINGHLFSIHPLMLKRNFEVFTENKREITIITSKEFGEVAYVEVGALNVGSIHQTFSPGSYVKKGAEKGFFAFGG
T4 sequence (P0CD79 260-301): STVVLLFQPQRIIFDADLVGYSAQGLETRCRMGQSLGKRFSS

[6] = biological target: T2, AasC (CT776), Chlamydia acyl-ACP synthase; assay: […]-phospholipid formation from […]-palmitate in E. coli lysate, TLC; type: biochemical; settings: 5 µM [14C]C16-OH, 10 mM ATP, 20 mM MgCl2, pH 7.4, 30 °C; E. coli acyl carrier and acyltransferase in lysate; remark: listed apart in the source
human LPCAT1 (hLPCAT1) = biological target: T5, human LPCAT1 (hLPCAT1) (Homo sapiens, UniProt Q8NF37); assay: competition with NBD-C16-CoA acylation of 1-C16-GPC, TLC fluorescence, microsomes; type: biochemical; settings: 0.5 µM NBD-C16-CoA, 20 µM 1-C16-GPC, 0.25-1.0 µM competitor, 30 °C; competing acyl donor
T5 construct: expressed in E. coli BL21(DE3), membrane fraction; cloning reported previously
T5 sequence (Q8NF37 1-534): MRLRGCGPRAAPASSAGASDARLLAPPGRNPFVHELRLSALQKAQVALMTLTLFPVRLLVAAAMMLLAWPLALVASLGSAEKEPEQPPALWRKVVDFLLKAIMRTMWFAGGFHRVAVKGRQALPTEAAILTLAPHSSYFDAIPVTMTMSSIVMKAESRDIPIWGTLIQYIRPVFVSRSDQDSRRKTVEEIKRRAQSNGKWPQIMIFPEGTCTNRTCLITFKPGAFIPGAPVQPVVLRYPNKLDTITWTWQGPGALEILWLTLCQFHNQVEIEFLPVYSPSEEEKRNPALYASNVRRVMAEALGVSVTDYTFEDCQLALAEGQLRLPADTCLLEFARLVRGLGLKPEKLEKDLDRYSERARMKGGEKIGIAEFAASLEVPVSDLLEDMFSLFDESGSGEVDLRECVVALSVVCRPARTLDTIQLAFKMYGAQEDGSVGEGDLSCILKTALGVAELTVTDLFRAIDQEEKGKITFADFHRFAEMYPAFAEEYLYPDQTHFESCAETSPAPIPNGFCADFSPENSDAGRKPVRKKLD

For `CC(C)CCCCCCCCCCCCCCCC(=O)O` [MeC18-OH], the “competition at 10 μM” value [1] was “this long-chain odd fatty acid was as good a substrate for hACSL6 as C18:1-OH”.

For `CC(C)CCCCCCCCCC(=O)O` [MeC12-OH], the “competition at 10 μM” value [1] was “The shorter chain MeC12-OH also competed but not as efficiently as MeC18-OH”.

In the case of `CCC/C=C/C/C=C/C=C/C=N/NN=O` [triacsin C], the “% inhibition at 5 μM” value [2] is reported as “both drugs had a significant inhibitory effect on FA incorporation in the presence of the AasC”.

`Nc1ncnc2c1ncn2[C@@H]1O[C@H](COP(=O)(O)OP(=O)(O)OP(=O)(O)O)[C@@H](O)[C@H]1O` [ATP] was tested, and the “acyl-CoA / acyl-AMP formation” value [3] was “In the presence of both ATP and CoASH, acyl-CoA is formed from fatty acids”.

`CCCCCCCCCCCCCCCC(=O)OC[C@@H](O)COP(=O)([O-])OCC[N+](C)(C)C` [1-C16-sn-glycerol-3-P-choline, 1-palmitoyl-2-hydroxy-sn-glycero-3-phosphocholine] was tested, and the “NBD-PC formation, TLC, bee venom PLA2 digestion, microsomes” value [4] was “NBD-acyl group had been transferred by CT775 to the sn2 position of the 1-C16-GPC isomer”.

`CCCCCCCCCCCCCCCC(=O)OC[C@H](COP(=O)(O)OC[C@H](N)C(=O)O)OC(=O)CCCCCNc1ccc([N+](=O)[O-])c2nonc12` [NBD-PS, 1-palmitoyl-2-(6-[(7-nitro-2-1,3-benzoxadiazol-4-yl)amino]hexanoyl)-sn-glycero-3-phosphoserine] was tested, and the “conversion of NBD-PS to NBD-PE, TLC fluorescence, E. coli lysate vs vector contr” value [5] was “CT699 was active and able to convert fluorescent NBD-PS into NBD-PE”.

In the case of `CN(CCOc1ccc(CC2SC(=O)NC2=O)cc1)c1ccccn1` (stereo not drawn) [rosiglitazone G], the “% inhibition at 100 μM” value [6] is reported as “both drugs had a significant inhibitory effect on FA incorporation in the presence of the AasC”.

For `CCCCCCCC/C=C\CCCCCCCC(=O)SCCNC(=O)CCNC(=O)[C@H](O)C(C)(C)COP(=O)(O)OP(=O)(O)OC[C@H]1O[C@@H](n2cnc3c(N)ncnc32)[C@H](O)[C@@H]1OP(=O)(O)O` [C18:1-CoA], the “% of activity without competitor” value (human LPCAT1 (hLPCAT1)) was “MeC18-CoA was a stronger competitor than C18:1-CoA”.

`CC(C)CCCCCCCCCCCCCCCC(=O)SCCNC(=O)CCNC(=O)[C@H](O)C(C)(C)COP(=O)(O)OP(=O)(O)OC[C@H]1O[C@@H](n2cnc3c(N)ncnc32)[C@H](O)[C@@H]1OP(=O)(O)O` [MeC18-CoA] was tested, and the “% of activity without competitor” value (human LPCAT1 (hLPCAT1)) was “NBD-C16-CoA to 1-acyl-GPC by hLPCAT1 was strongly reduced in the presence of MeC18-CoA”.
